From PubChem BioAssay (NCI) come the findings set out here.

Some test systems named below: MALME-3M melanoma; MDA-MB-231 breast; NCI-H23 lung; NCI-H460 lung; OVCAR-5 ovarian; SF-268 CNS; SK-MEL-2 melanoma; SK-OV-3 ovarian; TK-10 renal; UACC-62 melanoma.
Common to all, as to test: NCI tumour cell line growth inhibition, 48 h

Values joined by “and” are separate entries in the source; they are usually repeats but may differ in a detail not shown here. Equal values may be shown once.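 Exposure lasted 48 hours, with cells grown in 96-well plates and compounds tested at five concentrations. Here, GI50 denotes the concentration required for 50% inhibition of growth. TGI is the concentration that stops growth completely.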

For `[N-]=[N+]=CC(=O)COC(=O)c1ccccc1`, the TGI in the experiment with MALME-3M melanoma, in the experiment with MDA-MB-231 breast, in the experiment on NCI-H23 lung, in the experiment on NCI-H460 lung, with OVCAR-5 ovarian and in the experiment with SF-268 CNS was over 100 µM throughout. For the same molecule, the TGI in the experiment on SK-MEL-2 melanoma, in the experiment with SK-OV-3 ovarian, in the experiment with TK-10 renal and in the experiment on UACC-62 melanoma was over 100 µM each time.
Turning to `CSc1nsc(S/C=C\C(=O)c2ccc(C)cc2)n1`, the GI50 with MALME-3M melanoma was 19 µM; in the experiment with MDA-MB-231 breast, 11.3 µM; with NCI-H23 lung it was 17.3 µM; in the experiment with NCI-H460 lung, 26.7 µM; in the experiment with OVCAR-5 ovarian it was 22.7 µM; in the experiment on SF-268 CNS, 21.5 µM. Moreover, the GI50 in the experiment on SK-MEL-2 melanoma was 35.7 µM; in the experiment with SK-OV-3 ovarian, 60.7 µM; in the experiment with TK-10 renal, 18.6 µM; with UACC-62 melanoma it was 18.5 µM. The TGI in the experiment with MALME-3M melanoma is 38.6 µM; in the experiment on MDA-MB-231 breast it was 27.5 µM; with NCI-H23 lung, 34.6 µM; in the experiment with NCI-H460 lung, over 73.5 µM; in the experiment on OVCAR-5 ovarian it was 49.6 µM; in the experiment on SF-268 CNS, over 58.5 µM. Moreover, the TGI with SK-MEL-2 melanoma was over 100 µM; with SK-OV-3 ovarian, over 100 µM; in the experiment on TK-10 renal, 33.7 µM; in the experiment on UACC-62 melanoma it was 38.2 µM.
As to `Oc1c(Cl)cc(Cl)cc1Sc1cc(Cl)cc(Cl)c1O`, the GI50 in the experiment on MALME-3M melanoma is 3.32 µM and 2.51 µM; with MDA-MB-231 breast, 2.59 µM and 1.86 µM; in the experiment with NCI-H23 lung, 2.56 µM and 2.34 µM; in the experiment with NCI-H460 lung, 2.98 µM and 2.56 µM; in the experiment with OVCAR-5 ovarian, 4.37 µM and 4.04 µM; in the experiment on SF-268 CNS it was 4.4 µM and 3.44 µM. Moreover, the GI50 with SK-MEL-2 melanoma is 2.62 µM and 1.07 µM; with SK-OV-3 ovarian it was 2.66 µM; with TK-10 renal, 3.99 µM; with UACC-62 melanoma, 3.57 µM and 2.02 µM. Besides, the TGI in the experiment with MALME-3M melanoma was 13.7 µM and 6.83 µM; with MDA-MB-231 breast, 6.07 µM and 4.34 µM; in the experiment on NCI-H23 lung, 10.8 µM and 7.76 µM; in the experiment with NCI-H460 lung, 9.91 µM and 8.1 µM; in the experiment with OVCAR-5 ovarian it was 17.9 µM and 14.2 µM; with SF-268 CNS it was 17.3 µM and 14 µM. Moreover, the TGI was 5.4 µM and 2.91 µM with SK-MEL-2 melanoma; 7.04 µM in the experiment with SK-OV-3 ovarian; 11.6 µM in the experiment with TK-10 renal; 14.1 µM and 5.44 µM in the experiment on UACC-62 melanoma.
As to `C[C@]12CC[C@@H](OC(=O)N(CCCl)N=O)C[C@@H]1CC[C@@H]1[C@@H]2CC[C@]2(C)C(=O)CC[C@@H]12`, the GI50 with MALME-3M melanoma is 18.1 µM; in the experiment with MDA-MB-231 breast, 13.5 µM; in the experiment with NCI-H23 lung, 15.3 µM; in the experiment on NCI-H460 lung it was 0.247 µM; in the experiment with OVCAR-5 ovarian, 27.2 µM; with SF-268 CNS it was 0.632 µM. For the same molecule, the GI50 was 17.1 µM in the experiment with SK-MEL-2 melanoma, 3.43 µM in the experiment with SK-OV-3 ovarian, 12 µM in the experiment on TK-10 renal and 1.46 µM in the experiment on UACC-62 melanoma. The TGI with MALME-3M melanoma was 50.2 µM; with MDA-MB-231 breast, 29.8 µM; in the experiment on NCI-H23 lung it was 67.2 µM; in the experiment with NCI-H460 lung, 1.75 µM; with OVCAR-5 ovarian, 57.7 µM; with SF-268 CNS, 18.9 µM. Besides, the TGI in the experiment with SK-MEL-2 melanoma is 38 µM; in the experiment with SK-OV-3 ovarian, 14.3 µM; in the experiment with TK-10 renal, 33.1 µM; in the experiment on UACC-62 melanoma, 25.6 µM.
Consider `NNS(=O)(=O)c1cc(C(=O)O)cc(C(=O)O)c1`, for which the TGI with MALME-3M melanoma, with MDA-MB-231 breast, with NCI-H23 lung, in the experiment with NCI-H460 lung, in the experiment on OVCAR-5 ovarian and with SF-268 CNS was over 100 µM throughout. Also, the TGI in the experiment with SK-MEL-2 melanoma, in the experiment on SK-OV-3 ovarian, with TK-10 renal and in the experiment on UACC-62 melanoma was over 100 µM in each case.
Turning to `COC(=O)C(=O)C(C(=O)C(N)=O)c1nc2ccc(C(=O)c3ccccc3)cc2[nH]c1=O` (stereo not drawn), the TGI in the experiment with MALME-3M melanoma, in the experiment on MDA-MB-231 breast, with NCI-H460 lung, with OVCAR-5 ovarian, in the experiment with SF-268 CNS and in the experiment with SK-MEL-2 melanoma was over 100 µM in each case. In addition, the TGI with SK-OV-3 ovarian, with TK-10 renal and with UACC-62 melanoma was over 100 µM in each case.
For `CNCCNc1nc2ccccc2c2c(=O)c3cc(F)ccc3sc12`, the GI50 was 1.67 µM in the experiment with MALME-3M melanoma; 1.61 µM with MDA-MB-231 breast; 1.8 µM in the experiment with NCI-H23 lung; 1.78 µM in the experiment with NCI-H460 lung; 1.65 µM with OVCAR-5 ovarian; 1.69 µM in the experiment on SF-268 CNS. In addition, the GI50 with SK-MEL-2 melanoma was 1.76 µM; with SK-OV-3 ovarian, 2.13 µM; with UACC-62 melanoma, 1.73 µM. For the same molecule, the TGI was determined as 3.1 µM in the experiment on MALME-3M melanoma; 3.18 µM with MDA-MB-231 breast; 3.65 µM with NCI-H23 lung; 3.32 µM with NCI-H460 lung; 3.21 µM in the experiment on OVCAR-5 ovarian; 4.17 µM in the experiment on SF-268 CNS. Also, the TGI turned out to be 3.45 µM with SK-MEL-2 melanoma, 7.58 µM in the experiment on SK-OV-3 ovarian and 3.18 µM with UACC-62 melanoma.
In the case of `CNCCNc1nc2ccccc2c2c(=O)c3cc(OC)ccc3sc12`, the GI50 was 1.82 µM in the experiment on MALME-3M melanoma; 1.54 µM with MDA-MB-231 breast; 1.62 µM with NCI-H23 lung; 1.71 µM in the experiment on NCI-H460 lung; 1.8 µM in the experiment on OVCAR-5 ovarian; 1.64 µM in the experiment on SF-268 CNS. Besides, the results for the GI50 with SK-MEL-2 melanoma, in the experiment with SK-OV-3 ovarian and in the experiment on UACC-62 melanoma were 1.94 µM, 1.82 µM and 1.69 µM, respectively. Besides, the TGI worked out at 3.31 µM in the experiment on MALME-3M melanoma; 3.08 µM in the experiment on MDA-MB-231 breast; 3.05 µM in the experiment with NCI-H23 lung; 3.25 µM with NCI-H460 lung; 3.27 µM in the experiment with OVCAR-5 ovarian; 3.39 µM in the experiment on SF-268 CNS. Besides, the TGI was found to be 3.83 µM in the experiment with SK-MEL-2 melanoma, 3.97 µM in the experiment on SK-OV-3 ovarian and 3.13 µM with UACC-62 melanoma.
Regarding `COC(=O)[C@]1(C)CCC[C@@]2(C)[C@@H]3C[C@@H]4[C@H]5C[C@@]3(CC[C@@H]21)C[C@@]45C`, the TGI in the experiment on MALME-3M melanoma worked out at 37.3 µM; with MDA-MB-231 breast, 29.9 µM; with NCI-H23 lung it was 28.2 µM; with OVCAR-5 ovarian, 34.2 µM; with SF-268 CNS, 31.8 µM; in the experiment on SK-MEL-2 melanoma, 30.9 µM. Also, the TGI was 27.8 µM with SK-OV-3 ovarian, 28.3 µM in the experiment on TK-10 renal and 28 µM in the experiment on UACC-62 melanoma.
`NC(=S)NNC(=S)NC(=O)c1ccco1`: the TGI with MALME-3M melanoma, with MDA-MB-231 breast, with NCI-H23 lung, in the experiment on NCI-H460 lung, in the experiment with OVCAR-5 ovarian and with SF-268 CNS was over 10 µM throughout. The TGI in the experiment on SK-MEL-2 melanoma, in the experiment on SK-OV-3 ovarian and in the experiment with UACC-62 melanoma was over 10 µM throughout.
